Experiment: pH of the compounds
Assay type: physicochemical

- pKa: ~4.4
Structure (SMILES): CC(O)CC(=O)O (stereo not drawn) [BHB, β-hydroxybutyric acid]

Source: patent US12285394B2, “Ketogenic compounds, compositions, methods and use thereof” (9500-0535 QUEBEC INC., priority 2018, dated 2025)
